The values that follow come from patent US7595345B2, “Vitamin D receptor modulators” (Eli Lilly and Company, priority 2003, dated 2009).

The subject of data set [1] is IL-10 production in PBMCs. Nature of the data set: Human IL-10 induction assay. It is filed as cell-based. The conditions noted are these: PBMC; TPA/PHA treated human PBMCs, IL-10 in supernatant by immunoassay. An excerpt:
6. The IL-10 Induction Assay
This is an in vitro efficacy assay for psoriasis, abscess and adhesion. Psoriasis involves both keratinocytes and immune cells. IL-10 is a unique cytokine because it is anti-inflammatory and immunosuppressive. This assay tells us whether a VDRM is able to function as an agonist in PBMCs (primary blood mononuclear cells) or not. A lower EC50 value is desirable in this assay since a compound with a lower EC50 value will be a better agonist in PBMCs. […] 7. Other Compound Assay Standards An alternative measure of the efficacy of compounds of the invention for treatment of osteoporosis is a numerical ratio calculated as follows: • Dose Threshold needed to induce hypercalcemia • divided by • Dose Threshold needed for bone efficacy An alternative measure of the efficacy of compounds of the invention for treatment of psoriasis is a numerical ratio calculated as follows: • Dose Threshold needed to induce hypercalcemia • divided by • Dose Threshold needed to induce keratinocyte proliferation For the above ratios, Dose Thresholds are determined from dose response curve data. 8. The CaT1 (Calcium Transport Protein 1) Assay The CaT1 Assay is an indicator for the undesirable condition of hypercalcemia. The higher the EC50 values for a compound the less calcemic it will be in vivo. […] Preferred assay results are greater than 1000 nM. Details of the Assay Methods: (1) Materials and Method for RXR-VDR Heterodimerization Assay: Transfection Method:
(6) Materials and Method for Human IL-10 Induction Assay:
Isolation of peripheral blood mononuclear cells (PBMCs): • A. Collect 50 ml of human blood and dilute with media, RPMI-1640. • B. Prepare sterile tubes with ficol. • C. Add diluted blood to tubes. • D. Centrifuge. • E. Discard the top layer and collect the cells from middle layer. • F. Divide all cells into four tubes and add media. • G. Centrifuge. • H. Aspirate off media and resuspend. • I. Collect all cells • J. Centrifuge. at 1200 rpm for 10 minutes. • K. Resuspend in RPMI-1640 with 2% FBS and count cells
Stimulation of PBMC: • L. Prepare TPA in DMSO. • M. Dissolve PHA in water. • N. Plate TPA/PHA treated PBMCs in well plates. • O. Incubate.
Treatment: • P. Prepare all compound dilutions in plain RPMI-1640 media. • Q. Add diluted compound. • R. Incubate.
Sample Collection and Assay: • S. Remove all the cells by centrifugation and assay the supernatant for IL-10 by immunoassay. • 1) T. Perform IL-10 assay using anti-human IL-10 antibody coated beads, as described by the manufacturer (Linco Research Inc., St. Charles, Mo.).

The subject of data set [2] is KERtr cells. Nature of the data set: Keratinocyte proliferation assay. It is filed as cell-based. The following applies: Homo sapiens, 72 hr, BrdU incorporation, read-out: Kera. Prolif. IC50. Here is the method: 5. The Keratinocyte Proliferation Assay
This Assay is indicative for the treatment of psoriasis.
(5) The Keratinocyte Proliferation Assay:
KERtr cells (Human skin keratinocyte transformed with a retrovirus vector, obtained from ATCC) were plated in 96-well flat-bottomed plates (3000 cells/well) in 100 µl keratinocyte serum free medium supplemented with bovine pituitary extract in the absence of EGF (Life Technologies, Rockville, Md.) and incubated at 37° C. for two days. The cells were treated with various concentrations of VDR ligands (ten-fold serial dilution from 10,000 nM to 0.1 nM in triplicate), dissolved in 100 µl keratinocyte serum free medium supplemented with bovine pituitary extract in the absence of EGF and incubated at 37° C. for 72 hr. BrdU (5-bromo-2′-deoxyuridine) incorporation was analyzed as a measure of DNA replication (Cell proliferation ELISA kit, Roche Diagnostics, Indianapolis, Ind.) and absorbance was measured at 405 nm. Potency values (IC50) values were determined as the concentration (nM) of compound that elicited a half-maximal response.
For orientation: Dividing cells build labelled thymidine or BrdU into new DNA.

The nature of data set [3]: Mouse hypercalcemia assay. It is filed as in vivo. The conditions noted are these: female DBF mice, oral gavage for 6 days, serum ionized calcium 6 hours after last dosing. An excerpt: 4. The Mouse Hypercalcemia Assay
(4) Materials and Method for the Mouse Hypercalcemia Assay: […]

The subject of data set [4] is rat osteocalcin promoter. Put plainly: OCN (osteocalcin) promoter assay. It is filed as cell-based. The conditions noted are these: RG-15 (ROS 17/2.8) cells, 48 hr treatment, luciferase. On the procedure:
3. The OCN (Osteocalcin) Promoter Assay
The OCN Promoter Assay is an indicator and marker for osteoporosis. Desired assay results are EC50 less than or equal to […]. Preferred assay results are less than […].
(3) Materials and Method for the OCN Promoter Assay:
The activation of osteocalcin by VDR ligands was evaluated in a rat osteoblast-like cell line RG-15 (ROS 17/2.8) stably expressing rat osteocalcin promoter fused with luciferase reporter gene. The stable cell lines were established as reported before (Activation of Osteocalcin Transcription involves interaction of protein kinase A- and Protein kinase C-dependent pathways. Boguslawski, G., Hale, L. V., Yu, X.-P., Miles, R. R., Onyia, J. E., Santerre R. F., Chandrasekhar, S. J. Biol. Chem. 275, 999-1006, 2000). Confluent RG-15 cells maintained in DMEM/F-12 medium (3:1) containing 5% FBS, 300 µg/ml G418 and at 37° C. under 5% CO2/95% air atmosphere were trypsinized (0.25% trypsin) and plated into white opaque 96-well cell culture plates (25000 cells/well). After 24 hr, cells (in DMEM/F-12 medium+2% FBS) were treated with various concentrations of compounds, dissolved in DMSO. The final DMSO concentration remained at 0.01% (v/v). After 48 hr treatment, the medium was removed, cells were lysed with 50 µl of lysis buffer (From Luciferase reporter assay system, Roche Diagnostics, Indianapolis, Ind.) and assayed for luciferase activity using the Luciferase Reporter Gene Assay kit from Boehringer Mannheim as per manufacturer's specifications.

In data set [5] the target is T1, VDR (pGal4-VDR-LBD) (Homo sapiens, UniProt P11473).
T1 construct: the receptor expression vector pGal4-VDR-LBD (10 ng); expressed in transfected cells; host or cells: Caco-2 cells
T1 sequence (P11473 127-423 limits assumed): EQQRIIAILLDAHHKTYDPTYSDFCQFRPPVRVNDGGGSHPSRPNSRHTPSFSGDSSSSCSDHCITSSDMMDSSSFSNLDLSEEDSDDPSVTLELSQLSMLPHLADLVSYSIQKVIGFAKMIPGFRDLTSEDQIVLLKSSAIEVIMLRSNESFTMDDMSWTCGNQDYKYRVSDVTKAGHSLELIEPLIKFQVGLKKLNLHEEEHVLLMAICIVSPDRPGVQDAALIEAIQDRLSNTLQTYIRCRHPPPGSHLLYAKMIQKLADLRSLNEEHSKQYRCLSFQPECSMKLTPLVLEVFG
Put plainly: VDR CTF (Caco-2 cell co-transfection assay). It is filed as cell-based. The following applies: Caco-2 cells, Gal4-responsive reporter pFRLuc; surrogate for calcemic activity. Here is the method:
2. The Caco-2 Cell Co-Transfection Assay:
The Caco-2 cell assay is an indicator for the undesirable condition of hypercalcemia. This co-transfection assay is a surrogate assay for in vivo calcemic activity of VDR ligands. […] Preferred assay results are greater than 1000 nM.
(2) Materials and Method for the Caco-2 Cell Assay:
Caco-2 cells, grown in phenol red free, DMEM (Invitrogen, Carlsbad, Calif.) containing 10% charcoal-stripped FCS (Hyclone, Logan, Utah), were transfected with Fugene 6 reagent (Roche Diagnostics, Indianapolis, Ind.). Cells (5000/well) were plated 18 h before transfection in a 96 well plate. The Cells were transfected with Gal4-responsive reporter pFRLuc (150 ng, Stratagene, La Jolla Calif.) and the receptor expression vector pGal4-VDR-LBD (10 ng), along with Fugene 6 reagent (0.2 μl/well). The DNA-Fugene complex was formed by incubating the mixture for 30 min at room temperature. The cells were transfected in triplicate for 5 h, and treated with various concentrations of VDR ligands (form 0.01 nM to 10,000 nM concentration range) 18 h post-transfection. The luciferase activity was quantified using Steady-Glo reagent kit (Promega, Madison, Wis.) as per manufacturer's specifications.

Molecules are shown by their SMILES.

By IC50 is commonly meant the concentration that inhibits the measured activity by half. The term EC50 denotes the concentration at which the effect is half-maximal. As for `CCC(CC)(c1ccc(OCC(O)CO)c(C)c1)c1ccc(OCC(O)C(C)(C)C)c(C)c1` (stereo not drawn) [BB, 3-(4-{1-Ethyl-1-[4-(2-hydroxy-3,3-dimethyl-butoxy)-3-methyl-phenyl]-propyl}-2-methyl-phenoxy)-propane-1,2-diol, reference compound], the half-maximal inhibitory concentration (IC50) in data set [1] is 28 nM; in data set [2], 10 nM. For the same molecule, in data set [3], the “Mouse Hypercal” value is 20 µg/kg/day. The EC50 in data set [4] (Rattus norvegicus, 48 h) was found to be 8.24 nM.
Turning to `CCC(CC)(c1ccc(OCC(=O)C(C)(C)C)c(C)c1)c1ccc(OCC(=O)C(C)(C)C)c(C)c1` [DD, reference compound], the IC50 in data set [2] worked out at 1060 nM. Also, the “Mouse Hypercal” value in data set [3] is 1000 µg/kg/day. In addition, the 50% effective concentration (EC50) in data set [4] (Rattus norvegicus, 48 h) is 31.1 nM.
Turning to `CCC(CC)(c1ccc(OCC(=O)C(C)(C)C)c(C)c1)c1ccc(OC[C@H](O)C(C)(C)C)c(C)c1` [EE, reference compound], in data set [3], the “Mouse Hypercal” value is 1000 µg/kg/day. The EC50 in data set [4] (Rattus norvegicus, 48 h) was 341 nM.
Regarding `CCC(O)(C#Cc1ccc(C(CC)(CC)c2ccc(C(=O)NC(C)(C)C(=O)O)c(C)c2)cc1C)CC` [Ex. 2, 2-(4-{1-Ethyl-1-[4-(3-ethyl-3-hydroxy-pent-1-ynyl)-3-methyl-phenyl]-propyl}-2-methyl-benzoylamino)-2-methyl-propionic acid], the IC50 in data set [1] was determined as 24 nM; in data set [2], 21 nM. Also, the “Mouse Hypercal” value in data set [3] is 300 µg/kg/day. The concentration giving a half-maximal response (EC50) in data set [4] was 1.7 nM; in data set [4] (Rattus norvegicus, 48 h) it was 1.2 nM; in data set [5], 397 nM.
For `C=C1/C(=C\C=C2/CCC[C@]3(C)[C@@H]([C@H](C)CCCC(C)(C)O)CC[C@@H]23)C[C@@H](O)C[C@@H]1O` [AA, 1α,25-dihydroxyvitamin D3, reference compound], the “Mouse Hypercal” value in data set [3] was 0.06 µg/kg/day.
Turning to `C=C1/C(=C\C=C2/CCC[C@]3(C)[C@@H]([C@H](C)/C=C/[C@@H](O)C4CC4)CC[C@@H]23)C[C@@H](O)C[C@@H]1O` [FF, calcipotriol, reference compound], the values for the IC50 in data set [1] and in data set [2] were 0.5 nM and 103 nM, respectively.
